Results taken from patent US20110129544A1, “Bone/Cartilage Formation-Stimulation Agent” (priority 2007, published 2011).

Key:
[1] = tested on: osteoblastic cell strain MC3T3-E1; experiment: Growth of cultured osteoblastic cell (DNA amount, PicoGreen); format: cell-based, mouse; details: MC3T3-E1, differentiation medium, 16 days (FIG. 4)
Procedure: An osteoblastic cell strain MC3T3-E1 was cultured on α-MEM (growth medium) containing 5% FBS and 10 μg/mL gentamicin. When the cell became confluent, the cell was collected by 0.25% trypsin solution, and was subjected to seeding to a 96-well plate at 4×10^4/0.2 mL/well with the growth medium. After 24 hours incubation, the culture medium was replaced with a growth medium (differentiation medium) containing 50 μg/mL ascorbic acid, 10 mmol/L β-glycerophosphoric acid, and 10 nmol/L dexamethasone. At the same time, CS-A, CS-C, CS-D or CS-E used in the first example and the second example was dissolved and diluted by a phosphate buffered saline (PBS (−)), and then added to the medium. After 16 days passed from when the medium was replaced with the differentiation medium, a culture supernatant was eliminated, the cell was rinsed by PBS (−), and dissolved by 1% NP-40, and a cell lysate was collected.
Regarding a measurement of a DNA amount, PicoGreen dsDNA Quantitation kit (made by Molecular Probes corporation) was used, and a DNA amount was measured from a fluorescence intensity (Ex: wavelength 485 nm, Em: wavelength 535 nm) with a Calf Thymus DNA (Sigma) being as a standard.

[2] = tested on: osteoblastic cell strain MC3T3-E1; experiment: Calcified matrix formation (alizarin red) of cultured osteoblastic cell on differentiation medium; format: cell-based, mouse
Procedure: Using an osteoblastic cell strain MC3T3-E1 originating from a mouse skull bone, an action to osteoblactic cell differentiation was checked. MC3T3-E1 cell was cultured on α-MEM (growth medium) containing 5% fetal bovine serum (FBS) and 10 μg/ml gentamicin. When the cell became confluent, the cell was collected using 0.25% trypsin solution, and was subjected to seeding to a 48-well plate at 1×10^4/0.5 mL/well with the growth medium. After 24 hours passed from the cultivation, the culture medium was replaced with a growth medium (differentiation medium) containing 50 μg/mL ascorbic acid, 10 mmol/L β-glycerosphoric acid, and 10 nmol/L dexamethasone. At the same time, CS-A, CS-B, CS-C, CS-E, CS-H or CPS was added to the medium. After 16 days passed from when the medium was replaced with the differentiation medium, a culture supernatant was eliminated, the cell was rinsed by PBS (−), dissolved by 1% Nonidet P-40 (NP-40, registered trademark), and a cell lysate was collected. The cell on a plate was fixed by 15% formalin, a calcified matrix was dyed by 40 mmol/L alizarin red dyeing (pH 4.2)[…], and rinsed by pure water. Alizarin red pigments in the plate were dissolved by 10% formic acid, and light absorption at a wavelength of 415 nm was observed.
An osteoblastic cell strain MC3T3-E1 was cultured on α-MEM (growth medium) containing 5 FBS and 10 μg/mL gentamicin. When the cell became confluent, the cell was collected by 0.25 trypsin solution, and was subjected to seeding to a 96-well plate at 1×10^4/0.2 mL/well with the growth medium. After 24 hours incubation, the culture medium was replaced with a growth medium (differentiation medium) containing 50 μg/mL ascorbic acid, 10 mmol/L β-glycerophosphoric acid, and 10 nmol/L dexamethasone. At the same time, CS-A, CS-C or CS-D dissolved and diluted by a phosphate buffered saline (PBS (−)) was added to the medium. After 10 days passed from when the medium was replaced with the differentiation medium, a culture supernatant was eliminated, the cell was rinsed by PBS (−), and dissolved by 1% NP-40 (registered trademark), and a cell lysate was collected. The cell on the plate was fixed by 15% formalin, a calcified matrix was dyed by 40 mmol/L alizarin red dyeing (pH 4.2) liquid, and then rinsed by pure water. Alizarin red pigments in the plate were dissolved by 10% formic acid, and light absorption at a wavelength of 415 nm was observed.

[3] = tested on: osteoblastic cell strain MC3T3-E1; experiment: Alkaline phosphatase (ALP) activity of cultured osteoblastic cell; format: cell-based, mouse; details: MC3T3-E1, differentiation medium, 8 days, p-NP amount (FIG. 3)
Procedure: An osteoblastic cell strain MC3T3-E1 was cultured on α-MEM (growth medium) containing 5% FBS and 10 μg/mL gentamicin. When the cell became confluent, the cell was collected by 0.25 trypsin solution, and was subjected to seeding to a 48-well plate at 8×10^4/0.5 mL/well with the growth medium. After 24 hours incubation, the culture medium was replaced with a growth medium (differentiation medium) containing 50 μg/mL ascorbic acid, 10 mmol/L β-glycerophosphoric acid, and 10 nmol/L dexamethasone. At the same time, CS-C or CS-E used in the first example was dissolved and diluted by a phosphate buffered saline (PBS (−)), and then added to the medium. After 8 days passed from when the medium was replaced with the differentiation medium, a culture supernatant was eliminated, the cell was rinsed by PBS (−), and dissolved by 1% NP-40 (registered trademark), and a cell lysate was collected.
Regarding alkaline phosphatase (ALP) activity, a p-nitrophenol (p-NP) amount created by mixing the cell lysate with p-nitrophenylphosphate (Sigma) and by performing incubation on it for 10 minutes at 37° C. was measured at OD 415 nm, and a p-NP amount was calculated from an analytical curve.

MC3T3-E1 cell [4] = experiment: Calcification of osteoblastic cell cultured on calcium phosphate (OCP or HA coating); format: cell-based, mouse
Procedure: (§1) Octacalcium phosphate (OCP) and hydroxyapatite (HA, apaceram, made by pentax corporation) were broken into powders by a mortar, and powders which passed through a stainless mesh (pore size: 53 μm) were used for the test. 1 mg of OCP or HA powders were suspended in 1 mL of distilled water, and added to a 48-well plate 150 μL by 150 μL (0.15 mg/well). It was dried for one night at 80° C. by a dryer, sterilized by 70% ethanol, and used for the test.
(§2) An MC3T3-E1 cell was cultured on α-MEM (growth medium) containing 5% FBS and 10 μg/mL gentamicin. When the cell became confluent, the cell was collected by 0.25 trypsin solution, and was subjected to seeding to a 48-well plate at 8×10^4/0.5 […] with the growth medium. […] Regarding a measurement of a DNA amount, PicoGreen dsDNA Quantitation kit (made by Molecular Probes corporation) was used, and a DNA amount was measured from a fluorescence intensity (Ex: wavelength 485 nm, Em: wavelength 535 nm) with a Calf Thymus DNA (Sigma) being as a standard.
Regarding an evaluation of calcification, a calcified matrix produced by the cell on the plate was fixed by 15% formalin, dyed by 40 mmol/L alizarin red dyeing (pH 4.2) liquid, rinsed by deionization water, dissolved by 10% formic acid, and then light absorption was measured.

MC3T3-E1 cell [5] = experiment: Growth of osteoblastic cell cultured on calcium phosphate (OCP or HA coating), DNA amount; format: cell-based, mouse
Procedure: as §1
as §2, with “medium. After 24 hours incubation, the culture medium was replaced with a growth medium (differentiation medium) containing 50 μg/mL ascorbic acid, 10 mmol/L β-glycerophosphoric acid, and 10 nmol/L dexamethasone, while at the same time CS-E was added.” for “medium.”

[6] = tested on: swine knee joint cartilage cell; experiment: Collagen synthesis of cultured cartilage cell in alginate gel beads (three-dimensional culturing); format: cell-based; details: 100 μg/mL
From the text: A cartilage cell was separated from a swine knee joint cartilage as follow. A posterior leg of an LWD-kind pig about 1-year-old was purchased from SIMODA animal industry limited private company. After a knee joint was exposed, a joint cartilage of a femur was acquired aseptically. Thereafter, a cell originating from a joint cartilage (hereinafter, “cartilage cell”) was separated in accordance with a technique of Mok S. S. et al (J. Biol. Chem., 1994, 269, 33021 to 33027) while modifying some parts of such a technique.
The acquired cartilage was put into DMEM/F-12 culture medium (a culture medium which contained Dulbecco's modified eagle and Ham's F12 at 1:1) containing 0.4% actinase (made by KAKEN pharmaceutical corporation) and 10 μg/mL gentamicin (made by Invitrogen corporation), and processed for 1 hour at 37° C. while being stirred by a stirrer under a condition where 5% of CO2 was present. After the culture medium was eliminated, a culture media containing 0.025% collagenase (made by Roche corporation) and 5% FBS (made by Biological Industries corporation) was added to a residue, and it was digested for 16 hours at 37° C. under the presence of 5% of CO2. After digested, the cell was rinsed, collected by 70 μm cell strainer (made by Becton Dickinson corporation), and a number of cells were measured using a counting chamber. […]

[7] = 16th day of cultivation, 48-well plate, absorption 415 nm (FIG. 1)
[8] = 10 days, 96-well plate, absorption 415 nm (FIG. 2)

Row | Substance | growth of an osteoblastic cell (DNA amount) [1] | formation of a calcified matrix dyed by alizarin red [2, 7] | formation of a calcified matrix dyed by alizarin red [2, 8] | further results
1 | Chondroitin sulfate A [CS-A] | not observed | not observed | not observed | –
2 | chondroitin sulfate B [CS-B] | – | not observed | – | –
3 | chondroitin sulfate C [CS-C, reference compound] | not observed | not observed | not observed | ALP activity (osteoblastic cell differentiation marker) [3]: not observed
4 | chondroitin sulfate D [CS-D] | not observed | – | significantly promoted | –
5 | chondroitin sulfate E [CS-E] | significantly promoted | significantly promoted | – | production of a calcified matrix dyed by alizarin red (MC3T3-E1 cell [4]; HA coating, 12th day of cultivation (FIG. 5B)): promoted production of a calcified matrix; production of a calcified matrix dyed by alizarin red (MC3T3-E1 cell [4]; OCP coating, 16th day of cultivation (FIG. 5A)): promoted production of a calcified matrix; ALP activity (osteoblastic cell differentiation marker) [3]: significantly enhanced; growth of an osteoblastic cell (DNA amount) (MC3T3-E1 cell [5]; HA coating (FIG. 6B)): not significant but a cell growth promoting action was observed; growth of an osteoblastic cell (DNA amount) (MC3T3-E1 cell [5]; OCP coating, 16th day of cultivation (FIG. 6A)): significantly promoted; collagen content per twenty alginate gel beads ([6]; 6 days three-dimensional culturing (FIG. 7)): significantly increased; collagen content per DNA ([6]; 6 days three-dimensional culturing (FIG. 8)): significantly increased
6 | chondroitin sulfate H [CS-H] | – | significantly promoted | – | –
7 | polysulfated chondroitin sulfate [CPS] | – | significantly promoted | – | –
